Molecules are shown by their SMILES.

From US11000033B2, “Ketone or oxime compound, and herbicide” (NISSAN CHEMICAL CORPORATION, priority 2014, dated 2021) come the findings set out here.

Holding throughout (type): in vivo
For data set [1], the system named is Echinochloa oryzacola Vasing. Briefly: Test Example 2: herbicidal activity, application during weed generation in submerged conditions (symbol A). The following applies: Table 23; application herbicide amount 320 g/ha; grade 0-5 by criteria of Test Example 1. Put shortly:
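Scoring of herbicidal effect took place 3 weeks after treatment, using the criteria of the earlier test. Treatment was water-surface application of diluted emulsifiable compound at a set dose. Plants were at one- to two-leaf stage in submerged alluvial soil (4 cm depth), greenhouse 25-30° C.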

The next data set concerns Amaranthus retroflexus. Briefly: Test Example 4: herbicidal effect by soil treatment (symbol N). Put shortly:
(§1)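 Seeds were sown in sterilized diluvial soil, covered with about 1.5 cm of soil, and the soil surface was sprayed with a water-diluted emulsion of the compound at a predetermined rate. Plants grew in a greenhouse at 25° C. to 30° C.; effects were scored visually 3 weeks after application.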

The subject of another data set is corn. Briefly: Test Example 5: effect on crop by foliage application, plastic box (symbol c). The following applies: 320 g/ha, 3 weeks after application. Summed up:
(§2)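 Greenhouse test at 25° C. to 30° C. Seeds of crops and weeds were spot-sown in boxes of sterilized diluvial soil under roughly 1.5 cm soil cover, then grown for foliage treatment.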

For data set [2], the system named is Setaria viridis. Briefly: Test Example 5: herbicidal effect by foliage application, plastic box (symbol G). The following applies: 320 g/ha, 3 weeks after application. Summed up:
(§3)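 Visual herbicidal score, taken three weeks post-application, of seedlings sprayed on the foliage with water-diluted emulsion at a predetermined amount; plants were 14 days old, greenhouse-raised at 25° C. to 30° C.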

Data set [3] deals with Setaria viridis. Put plainly: Test Example 4: herbicidal effect by soil treatment (symbol G). Put shortly:
as §1

A further data set deals with Leptochloa chinensis. Briefly: Test Example 3: herbicidal effect by foliage application, Wagner pot (symbol D). The following applies: application herbicide amount 320 g/ha. Summed up: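 Foliar spray of a water-diluted emulsion at a predetermined herbicide amount, applied to 14-day-old plants. Seedlings were raised in flooded alluvial soil (0.1–0.5 cm water) at 25–30 °C in a greenhouse. Injury was rated after 3 weeks against fixed criteria.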

A further data set has as its system rice plant. Briefly: Test Example 5: effect on crop by foliage application, plastic box (symbol b). Conditions: 320 g/ha, 3 weeks after application. Summed up:
as §2

Data set [4] has as its system wheat. Put plainly: Test Example 5: effect on crop by foliage application, plastic box (symbol e). Conditions: 320 g/ha, 3 weeks after application. Put shortly:
as §2

The next data set has as its system Alopecurus myosuroides. Put plainly: Test Example 5: herbicidal effect by foliage application, plastic box (symbol J). Conditions: 320 g/ha, 3 weeks after application. Summed up:
as §3

The next data set relates to beet. Briefly: Test Example 5: effect on crop by foliage application, plastic box (symbol f). Conditions: 320 g/ha, 3 weeks after application. Put shortly:
as §2

The subject of the next data set is Chenopodium album. Put plainly: Test Example 5: herbicidal effect by foliage application, plastic box (symbol O). Conditions: 320 g/ha, 3 weeks after application. Put shortly: as §3
Data set [5] has as its system wheat. Briefly: Test Example 4: effect on crop by soil treatment (symbol e). Conditions: for e: wheat, effect on crop grade: application herbicide amount 320 g/ha; for e: wheat, effect grade on crop: 320 g/ha. Summed up:
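Steps: fill box with sterilized diluvial soil; sow seed spot-like; cover with ~1.5 cm soil; grow in greenhouse (25° C. to 30° C.).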

Where [6] appears, read: application herbicide amount 320 g/ha.

Consider `C=CC(=O)CC1CC(O)=C(c2c(C)cc(C)cc2C)C1=O` (stereo not drawn) [2-031], for which, in data set [1], the “Herbicidal effect grade, A: Echinochloa oryzacola Vasing.” value was 4 (Herbicidal ratio of 70% or higher and lower than 90%). In the data set on Amaranthus retroflexus (setting [6]), the “N: Amaranthus retroflexus, herbicidal effect grade” value (shortened to “N: Amaranthus retroflexus”) is 0 (Herbicidal ratio of 5% or lower (almost no effect)). Moreover, the “c: corn, effect on crop grade” value in the data set on corn is 5 (Herbicidal ratio of 90% or more (almost completely withered)). Moreover, the “G: Setaria viridis, herbicidal effect grade” value with Setaria viridis [2] and in the data set on Setaria viridis [3] (setting [6]) was 5 (Herbicidal ratio of 90% or more (almost completely withered)) in each case. Moreover, the “herbicidal effect on D (Leptochloa chinensis), grade 0-5” value (shortened to “herbicidal effect on D”) in the data set on Leptochloa chinensis is 5 (Herbicidal ratio of 90% or more (almost completely withered)). In addition, the “b: directly sowed rice plant, effect on crop grade” value in the data set on rice plant is 5 (Herbicidal ratio of 90% or more (almost completely withered)). Moreover, the “e: wheat, effect on crop grade” value in the data set with wheat [4] was 0 (Herbicidal ratio of 5% or lower (almost no effect)); in the data set with wheat [5], 3 (Herbicidal ratio of 40% or higher and lower than 70%). Besides, the “J: Alopecurus myosuroides, herbicidal effect grade” value with Alopecurus myosuroides is 5 (Herbicidal ratio of 90% or more (almost completely withered)). In addition, the “f: beet, effect on crop grade” value in the data set on beet was 0 (Herbicidal ratio of 5% or lower (almost no effect)). For the same compound, the “O: Chenopodium album, herbicidal effect grade” value in the data set with Chenopodium album was 0 (Herbicidal ratio of 5% or lower (almost no effect)).
Consider `CON=C(C)CC1CC(OC(=O)OCc2ccccc2)=C(c2c(C)cc(C)cc2C)C1=O` (stereo not drawn) [1-145], for which the “Herbicidal effect grade, A: Echinochloa oryzacola Vasing.” value in [1] is on record as 5 (Herbicidal ratio of 90% or more (almost completely withered)). Besides, the “N: Amaranthus retroflexus” value in the data set on Amaranthus retroflexus (320 g/ha) is 4 (Herbicidal ratio of 70% or higher and lower than 90%). The “c: corn, effect on crop (criteria 0-5)” value in the data set with corn is 5 (Herbicidal ratio of 90% or more (almost completely withered)). Besides, in the data set with Setaria viridis [2], the “G: Setaria viridis, herbicidal effect (criteria 0-5)” value is listed as 5 (Herbicidal ratio of 90% or more (almost completely withered)). In addition, the “G: Setaria viridis, herbicidal effect grade” value with Setaria viridis [3] (320 g/ha) is listed as 5 (Herbicidal ratio of 90% or more (almost completely withered)). For the same compound, the “herbicidal effect on D” value in the data set with Leptochloa chinensis is given as 5 (Herbicidal ratio of 90% or more (almost completely withered)). Also, the “b: directly sowed rice plant, effect on crop (criteria 0-5)” value with rice plant is listed as 5 (Herbicidal ratio of 90% or more (almost completely withered)). The “e: wheat, effect on crop (criteria 0-5)” value in the data set with wheat [4] is 5 (Herbicidal ratio of 90% or more (almost completely withered)). Besides, the “J: Alopecurus myosuroides, herbicidal effect (criteria 0-5)” value with Alopecurus myosuroides was 5 (Herbicidal ratio of 90% or more (almost completely withered)). Besides, the “f: beet, effect on crop (criteria 0-5)” value in the data set on beet is 2 (Herbicidal ratio of 20% or higher and lower than 40%). In addition, the “O: Chenopodium album, herbicidal effect (criteria 0-5)” value in the data set on Chenopodium album was 1 (Herbicidal ratio of 5% or higher and lower than 20%). Moreover, in the data set on wheat [5], the “e: wheat, effect grade on crop” value is listed as 5 (Herbicidal ratio of 90% or more (almost completely withered)).
Regarding `CCc1cc(Br)cc(C)c1C1=C(O)CC(CC(C)=NOC)C1=O` (stereo not drawn) [6-001], in data set [1], the “Herbicidal effect grade, A: Echinochloa oryzacola Vasing.” value was 4 (Herbicidal ratio of 70% or higher and lower than 90%). Also, in the data set with Amaranthus retroflexus (setting [6]), the “N: Amaranthus retroflexus” value is given as 0 (Herbicidal ratio of 5% or lower (almost no effect)). In addition, the “c: corn, effect on crop grade” value in the data set with corn is listed as 5 (Herbicidal ratio of 90% or more (almost completely withered)). The “G: Setaria viridis, herbicidal effect grade” value with Setaria viridis [2] and in the data set on Setaria viridis [3] (setting [6]) was 5 (Herbicidal ratio of 90% or more (almost completely withered)) in each case. Also, the “herbicidal effect on D” value in the data set on Leptochloa chinensis is recorded as 5 (Herbicidal ratio of 90% or more (almost completely withered)). In addition, the “b: directly sowed rice plant, effect on crop grade” value in the data set with rice plant is 5 (Herbicidal ratio of 90% or more (almost completely withered)). Also, the “e: wheat, effect on crop grade” value in the data set on wheat [4] and in the data set with wheat [5] was 5 (Herbicidal ratio of 90% or more (almost completely withered)) throughout. In addition, in the data set with Alopecurus myosuroides, the “J: Alopecurus myosuroides, herbicidal effect grade” value is reported as 5 (Herbicidal ratio of 90% or more (almost completely withered)). In the data set on beet, the “f: beet, effect on crop grade” value is listed as 0 (Herbicidal ratio of 5% or lower (almost no effect)). Moreover, the “O: Chenopodium album, herbicidal effect grade” value in the data set with Chenopodium album is 0 (Herbicidal ratio of 5% or lower (almost no effect)).
In the case of `CCc1cc(Br)cc(C)c1C1=C(O)CC(C(C(=O)OC)C(C)=NOC)C1=O` (stereo not drawn) [6-002], the “Herbicidal effect grade, A: Echinochloa oryzacola Vasing.” value in data set [1] was 0 (Herbicidal ratio of 5% or lower (almost no effect)). In addition, the “N: Amaranthus retroflexus” value with Amaranthus retroflexus (setting [6]) is reported as 0 (Herbicidal ratio of 5% or lower (almost no effect)). The “c: corn, effect on crop grade” value in the data set on corn is reported as 5 (Herbicidal ratio of 90% or more (almost completely withered)). For the same compound, the “G: Setaria viridis, herbicidal effect grade” value is 5 (Herbicidal ratio of 90% or more (almost completely withered)) in the data set on Setaria viridis [2]; 3 (Herbicidal ratio of 40% or higher and lower than 70%) in the data set with Setaria viridis [3] (setting [6]). In addition, the “herbicidal effect on D” value in the data set on Leptochloa chinensis is 4 (Herbicidal ratio of 70% or higher and lower than 90%). For the same compound, in the data set with rice plant, the “b: directly sowed rice plant, effect on crop grade” value is listed as 5 (Herbicidal ratio of 90% or more (almost completely withered)). Moreover, the “e: wheat, effect on crop grade” value with wheat [4] and in the data set on wheat [5] was 0 (Herbicidal ratio of 5% or lower (almost no effect)) throughout. In addition, the “J: Alopecurus myosuroides, herbicidal effect grade” value in the data set on Alopecurus myosuroides is 5 (Herbicidal ratio of 90% or more (almost completely withered)). In addition, the “f: beet, effect on crop grade” value in the data set on beet is given as 0 (Herbicidal ratio of 5% or lower (almost no effect)). The “O: Chenopodium album, herbicidal effect grade” value in the data set with Chenopodium album is given as 0 (Herbicidal ratio of 5% or lower (almost no effect)).
With `C=CCOC(=O)OC1=C(c2c(C)cc(C)cc2C)C(=O)C(CC(C)=NOC)C1` (stereo not drawn) [1-146], the “Herbicidal effect grade, A: Echinochloa oryzacola Vasing.” value in data set [1] is recorded as 5 (Herbicidal ratio of 90% or more (almost completely withered)). The “N: Amaranthus retroflexus” value in the data set with Amaranthus retroflexus (320 g/ha) was 5 (Herbicidal ratio of 90% or more (almost completely withered)). Besides, in the data set on corn, the “c: corn, effect on crop (criteria 0-5)” value was 5 (Herbicidal ratio of 90% or more (almost completely withered)). The “G: Setaria viridis, herbicidal effect (criteria 0-5)” value with Setaria viridis [2] is 5 (Herbicidal ratio of 90% or more (almost completely withered)). The “G: Setaria viridis, herbicidal effect grade” value in the data set on Setaria viridis [3] (320 g/ha) is 5 (Herbicidal ratio of 90% or more (almost completely withered)). Further, the “herbicidal effect on D” value in the data set with Leptochloa chinensis is on record as 5 (Herbicidal ratio of 90% or more (almost completely withered)). Also, the “b: directly sowed rice plant, effect on crop (criteria 0-5)” value with rice plant is 5 (Herbicidal ratio of 90% or more (almost completely withered)). Further, the “e: wheat, effect on crop (criteria 0-5)” value in the data set on wheat [4] is 5 (Herbicidal ratio of 90% or more (almost completely withered)). Besides, the “J: Alopecurus myosuroides, herbicidal effect (criteria 0-5)” value with Alopecurus myosuroides was 5 (Herbicidal ratio of 90% or more (almost completely withered)). For the same compound, the “f: beet, effect on crop (criteria 0-5)” value in the data set on beet is 4 (Herbicidal ratio of 70% or higher and lower than 90%). Moreover, the “O: Chenopodium album, herbicidal effect (criteria 0-5)” value in the data set on Chenopodium album is 2 (Herbicidal ratio of 20% or higher and lower than 40%). Further, in the data set with wheat [5], the “e: wheat, effect grade on crop” value is given as 5 (Herbicidal ratio of 90% or more (almost completely withered)).
In the case of `CON=C(C)CC1CC(OC(=O)c2c(Cl)nn(C)c2Cl)=C(c2c(C)cc(C)cc2C)C1=O` (stereo not drawn) [1-160], the “Herbicidal effect grade, A: Echinochloa oryzacola Vasing.” value in data set [1] is on record as 5 (Herbicidal ratio of 90% or more (almost completely withered)). Further, the “N: Amaranthus retroflexus” value in the data set with Amaranthus retroflexus (320 g/ha) is 4 (Herbicidal ratio of 70% or higher and lower than 90%). Also, the “c: corn, effect on crop grade” value with corn was 4 (Herbicidal ratio of 70% or higher and lower than 90%). The “G: Setaria viridis, herbicidal effect grade” value in the data set with Setaria viridis [2] and in the data set on Setaria viridis [3] (320 g/ha) was 5 (Herbicidal ratio of 90% or more (almost completely withered)) each time. Moreover, the “herbicidal effect on D” value with Leptochloa chinensis is reported as 5 (Herbicidal ratio of 90% or more (almost completely withered)). Also, in the data set with rice plant, the “b: directly sowed rice plant, effect on crop grade” value is 5 (Herbicidal ratio of 90% or more (almost completely withered)). Also, in the data set on wheat [4], the “e: wheat, effect on crop grade” value is reported as 5 (Herbicidal ratio of 90% or more (almost completely withered)). Besides, the “J: Alopecurus myosuroides, herbicidal effect grade” value in the data set with Alopecurus myosuroides is listed as 5 (Herbicidal ratio of 90% or more (almost completely withered)). Besides, the “f: beet, effect on crop grade” value in the data set with beet is given as 5 (Herbicidal ratio of 90% or more (almost completely withered)). Moreover, the “O: Chenopodium album, herbicidal effect grade” value in the data set on Chenopodium album was 2 (Herbicidal ratio of 20% or higher and lower than 40%). Further, the “e: wheat, effect grade on crop” value with wheat [5] was 2 (Herbicidal ratio of 20% or higher and lower than 40%).
